How the values were obtained:
[1] = test system: neuroleptic-induced catatonia; assay: Inhibition of neuroleptic-induced catatonia (prochlorperazine); assay type: in vivo, rat (male, OFA strain); settings: for Inhibition of the neuroleptic-induced catatonia: 30 min before prochlorperazine; for activity compared with amantadine, neuroleptic-induced catatonia: versus amantadine
Method: 2. Inhibition of neuroleptic-induced catatonia
The blocking of dopaminergic receptors by neuroleptics in the extra-pyramidal system induces catatonia in the rat. Catatonia is differentiated from sedative properties by means of the test used hereabove for reserpine-induced catatonia. The same system of scoring was also employed in the present case.
An oral dose of the compound to be studied in aqueous solution was administered to batches of 10 male rats of the OFA strain weighing about 150 to 200 g. […] Three hours after the injection of this latter compound, catatonia was measured. An identical trial was also carried out with control animals which received prochlorperazine but none of the compounds under study.
The scoring system, used was that given hereabove in Table I.

[2] = test system: reserpine-induced catatonia; assay: Inhibition of reserpine-induced catatonia; assay type: in vivo, rat (male, OFA strain); settings: for Inhibition of reserpine-induced catatonia: 30 min before reserpine
Method: 1. Inhibition of reserpine-induced catatonia
After sufficient doses of reserpine have been administered to the rat, a series of symptoms occur, more particularly ptosis, catatonia and a drop in central temperature. These symptoms are caused by the depletion of the intragranular reserve pool of boigenetic amines at the synaptic terminals.
An oral dose of the compound to be studied in aqueous solution was administered to batches of 10 male rats of the OFA strain weighing about 150 to 200 g. Thirty minutes later a dose of 5 mg/kg of reserpine was given by intraperitoneal route. Three hours after the injection of reserpine, the animals were suspended by the four paws to a horizontally stretched wire fixed at 15 cm from the ground. The catatonic animals were those which maintained the position so given for at least 30 seconds. […] The maximum score was therefore 10 per batch. An identical trial was undertaken with control animals which received reserpine but none of the compounds being studied.

Compound: CCCC(N)(CCC)CCC
- score, neuroleptic-induced catatonia ([1]; 3 mg/kg): 4 (100% inhibition of catatonia in comparison with the controls (namely a score of 0 per studied batch))
- score, reserpine-induced catatonia ([2]; 3 mg/kg): 4 (100% inhibition of catatonia in comparison with the controls (namely a score of 0 per studied batch))

Compound: CCCC(N)(CC)CC(C)C (stereo not shown) [Compound 3, 1-Ethyl-1-isobutyl-n-butylamine]
- Inhibition of the neuroleptic-induced catatonia ([1]; 20 mg/kg oral): 3 (70 to 80% inhibition of catatonia in comparison with the controls (namely a score of 2 or 3 per studied batch))
- Inhibition of reserpine-induced catatonia ([2]; 20 mg/kg oral): 3 (70 to 80% inhibition of catatonia in comparison with the controls (namely a score of 2 or 3 per studied batch))

Compound: CCCCC(N)(CC)CCC (stereo not shown) [Compound 4, 1-Ethyl-1-n-propyl-n-pentylamine]
- Inhibition of the neuroleptic-induced catatonia ([1]; 20 mg/kg oral): 3 (70 to 80% inhibition of catatonia in comparison with the controls (namely a score of 2 or 3 per studied batch))
- Inhibition of reserpine-induced catatonia ([2]; 20 mg/kg oral): 3 (70 to 80% inhibition of catatonia in comparison with the controls (namely a score of 2 or 3 per studied batch))

Compound: CCCC(N)(CCC)CC(C)C [Compound 5, 1-n-Propyl-1-isobutyl-n-butylamine]
- Inhibition of the neuroleptic-induced catatonia ([1]; 20 mg/kg oral): 4 (100% inhibition of catatonia in comparison with the controls (namely a score of 0 per studied batch))
- activity compared with amantadine, neuroleptic-induced catatonia [1]: five times more active than amantadine
- Inhibition of reserpine-induced catatonia ([2]; 20 mg/kg oral): 2 (50% inhibition of catationia in comprison with the controls (namely a score of 5 per studied batch))

Compound: CCCC(C)CC(C)(N)CC (stereo not shown) [Compound 7, 1,3-Dimethyl-1-ethyl-n-hexylamine]
- Inhibition of the neuroleptic-induced catatonia ([1]; 40 mg/kg oral): 1 (20 to 30% inhibition of catatonia in comparison with the controls (namely a score of 7 to 8 per studied batch))
- Inhibition of reserpine-induced catatonia ([2]; 20 mg/kg oral): 1 (20 to 30% inhibition of catatonia in comparison with the controls (namely a score of 7 to 8 per studied batch))

Compound: CCCCC(C)(N)CC(C)C (stereo not shown) [Compound 8, 1-Methyl-1-isobutyl-n-pentylamine]
- Inhibition of the neuroleptic-induced catatonia ([1]; 50 mg/kg oral): 4 (100% inhibition of catatonia in comparison with the controls (namely a score of 0 per studied batch))
- activity compared with amantadine, neuroleptic-induced catatonia [1]: twice as active
- Inhibition of reserpine-induced catatonia ([2]; 20 mg/kg oral): 1 (20 to 30% inhibition of catatonia in comparison with the controls (namely a score of 7 to 8 per studied batch))

Compound: CCCCCCCC(C)(C)N [Compound 10, 1,1-Dimethyl-n-octylamine]
- Inhibition of the neuroleptic-induced catatonia ([1]; 50 mg/kg oral): 1 (20 to 30% inhibition of catatonia in comparison with the controls (namely a score of 7 to 8 per studied batch))
- Inhibition of reserpine-induced catatonia ([2]; 20 mg/kg oral): 1 (20 to 30% inhibition of catatonia in comparison with the controls (namely a score of 7 to 8 per studied batch))

Compound: C=CCC(N)(CC=C)CC=C [Compound 11, 1,1-Di-(2-propen-1-yl)-3-buten-1-ylamine]
- Inhibition of the neuroleptic-induced catatonia ([1]; 20 mg/kg oral): 1 (20 to 30% inhibition of catatonia in comparison with the controls (namely a score of 7 to 8 per studied batch))
- Inhibition of reserpine-induced catatonia ([2]; 20 mg/kg oral): 1 (20 to 30% inhibition of catatonia in comparison with the controls (namely a score of 7 to 8 per studied batch))

Compound: CCCCC(C)CC(C)(C)N (stereo not shown) [Compound 13, 1,1,3-Trimethyl-n-heptylamine]
- Inhibition of the neuroleptic-induced catatonia ([1]; 50 mg/kg oral): 1 (20 to 30% inhibition of catatonia in comparison with the controls (namely a score of 7 to 8 per studied batch))
- Inhibition of reserpine-induced catatonia ([2]; 25 mg/kg oral): 1 (20 to 30% inhibition of catatonia in comparison with the controls (namely a score of 7 to 8 per studied batch))

Compound: CCCC(N)(CC)CC [Compound 14, 1,1-Diethyl-n-butylamine]
- Inhibition of the neuroleptic-induced catatonia ([1]; 50 mg/kg oral): 3 (70 to 80% inhibition of catatonia in comparison with the controls (namely a score of 2 or 3 per studied batch))
- Inhibition of reserpine-induced catatonia ([2]; 50 mg/kg oral): 3 (70 to 80% inhibition of catatonia in comparison with the controls (namely a score of 2 or 3 per studied batch))

Compound: CCC(N)(CC)CC [Compound 15, 1,1-Diethyl-n-propylamine]
- Inhibition of the neuroleptic-induced catatonia ([1]; 50 mg/kg oral): 3 (70 to 80% inhibition of catatonia in comparison with the controls (namely a score of 2 or 3 per studied batch))
- Inhibition of reserpine-induced catatonia ([2]; 50 mg/kg oral): 1 (20 to 30% inhibition of catatonia in comparison with the controls (namely a score of 7 to 8 per studied batch))

Compound: CCC(C)(C)N [Compound 16, 1,1-Dimethyl-n-propylamine]
- Inhibition of the neuroleptic-induced catatonia ([1]; 10 mg/kg oral): 1 (20 to 30% inhibition of catatonia in comparison with the controls (namely a score of 7 to 8 per studied batch))
- Inhibition of reserpine-induced catatonia ([2]; 50 mg/kg oral): 1 (20 to 30% inhibition of catatonia in comparison with the controls (namely a score of 7 to 8 per studied batch))

Compound: CCCC(CC)CC(C)(C)N (stereo not shown) [Compound 17, 1,1-Dimethyl-3-ethyl-n-hexylamine]
- Inhibition of the neuroleptic-induced catatonia ([1]; 11 mg/kg oral): 2 (50% inhibition of catationia in comprison with the controls (namely a score of 5 per studied batch))
- Inhibition of reserpine-induced catatonia ([2]; 11 mg/kg oral): 1 (20 to 30% inhibition of catatonia in comparison with the controls (namely a score of 7 to 8 per studied batch))

Compound: CCCC(N)(CC(C)C)CC(C)C [Compound 18, 1,1-Diisobutyl-n-butylamine]
- Inhibition of the neuroleptic-induced catatonia ([1]; 12 mg/kg oral): 1 (20 to 30% inhibition of catatonia in comparison with the controls (namely a score of 7 to 8 per studied batch))
- Inhibition of reserpine-induced catatonia ([2]; 12 mg/kg oral): 2 (50% inhibition of catationia in comprison with the controls (namely a score of 5 per studied batch))

Compound: CCCC(N)(CCC)C(C)C [Compound 19, 1-n-Propyl-1-isopropyl-n-butylamine]
- Inhibition of the neuroleptic-induced catatonia ([1]; 6 mg/kg oral): 3 (70 to 80% inhibition of catatonia in comparison with the controls (namely a score of 2 or 3 per studied batch))
- Inhibition of reserpine-induced catatonia ([2]; 6 mg/kg oral): 3 (70 to 80% inhibition of catatonia in comparison with the controls (namely a score of 2 or 3 per studied batch))

Compound: CCCC(N)(CCC)C(C)(C)C [Compound 20, 1-n-Propyl-1-tert-butyl-n-butylamine]
- Inhibition of the neuroleptic-induced catatonia ([1]; 50 mg/kg oral): 1 (20 to 30% inhibition of catatonia in comparison with the controls (namely a score of 7 to 8 per studied batch))
- Inhibition of reserpine-induced catatonia ([2]; 6 mg/kg oral): 2 (50% inhibition of catationia in comprison with the controls (namely a score of 5 per studied batch))

Compound: C#CC(N)(CCC)CCC [Compound 21, 1,1-Di-n-propyl-2-propyn-1-ylamine]
- Inhibition of the neuroleptic-induced catatonia ([1]; 30 mg/kg oral): 1 (20 to 30% inhibition of catatonia in comparison with the controls (namely a score of 7 to 8 per studied batch))
- Inhibition of reserpine-induced catatonia ([2]; 30 mg/kg oral): 2 (50% inhibition of catationia in comprison with the controls (namely a score of 5 per studied batch))

Compound: CCC#CC(N)(CC)CC [Compound 22, 1,1-Diethyl-2-pentyn-1-ylamine]
- Inhibition of the neuroleptic-induced catatonia ([1]; 30 mg/kg oral): 1 (20 to 30% inhibition of catatonia in comparison with the controls (namely a score of 7 to 8 per studied batch))
- Inhibition of reserpine-induced catatonia ([2]; 60 mg/kg oral): 1 (20 to 30% inhibition of catatonia in comparison with the controls (namely a score of 7 to 8 per studied batch))

Compound: CCC=CC(N)(CC)CC [Compound 23, 1,1-Diethyl-2-penten-1-ylamine]
- Inhibition of the neuroleptic-induced catatonia ([1]; 30 mg/kg oral): 1 (20 to 30% inhibition of catatonia in comparison with the controls (namely a score of 7 to 8 per studied batch))
- Inhibition of reserpine-induced catatonia ([2]; 60 mg/kg oral): 1 (20 to 30% inhibition of catatonia in comparison with the controls (namely a score of 7 to 8 per studied batch))

Compound: CCC#CC(N)(CCC)CCC [Compound 24, 1,1-Di-n-propyl-2-pentyn-1-ylamine]
- Inhibition of the neuroleptic-induced catatonia ([1]; 20 mg/kg oral): 2 (50% inhibition of catationia in comprison with the controls (namely a score of 5 per studied batch))
- Inhibition of reserpine-induced catatonia ([2]; 20 mg/kg oral): 1 (20 to 30% inhibition of catatonia in comparison with the controls (namely a score of 7 to 8 per studied batch))

Compound: CCC=CC(N)(CCC)CCC [Compound 25, 1,1-Di-n-propyl-2-penten-1-ylamine]
- Inhibition of the neuroleptic-induced catatonia ([1]; 6 mg/kg oral): 3 (70 to 80% inhibition of catatonia in comparison with the controls (namely a score of 2 or 3 per studied batch))
- Inhibition of reserpine-induced catatonia ([2]; 6 mg/kg oral): 3 (70 to 80% inhibition of catatonia in comparison with the controls (namely a score of 2 or 3 per studied batch))

Compound: C#CCC(N)(CCC)CCC [Compound 26, 1,1-Di-n-propyl-3-butyn-1-ylamine]
- Inhibition of the neuroleptic-induced catatonia ([1]; 30 mg/kg oral): 4 (100% inhibition of catatonia in comparison with the controls (namely a score of 0 per studied batch))
- Inhibition of reserpine-induced catatonia ([2]; 30 mg/kg oral): 1 (20 to 30% inhibition of catatonia in comparison with the controls (namely a score of 7 to 8 per studied batch))

Reference: patent US4048334A, “Active derivatives of methylamino in therapeutic compositions and methods of use” (priority 1974, dated 1977)
